# From PMC10223265 (Viruses, 2023)
# Where two headings read alike, the source gives them in different places. Where a SMILES comes first, the peptide text is derived from it. Side-chain parts run from the residue outwards. The star is where a group is joined. X1 = CC(=O)N1CCC(C(=O)N(CCCN2CCC(Cc3ccc(C(=O)*)cc3)CC2)c2ccc(C)c(Cl)c2)CC1; PEG4 = NCCOCCOCCOCCOCCC(=O)O
# Experiments:
# [1] = system: HIV-1 92UG029 (subtype A, X4); assay: HIV-1 infection assay, primary isolate 92UG029; type: cell-based; settings: Human immunodeficiency virus 1, primary isolate 92UG029, subtype A, CEMx174 5.25 M7 cells
# [2] = system: HIV-1 strain 89BZ167 (subtype B, X4); assay: HIV-1 infection assay, primary isolate 89BZ167; type: cell-based; settings: Human immunodeficiency virus 1, CEMx174 5.25M7
# [3] = system: HIV-1 91US_4 (subtype B, R5); assay: HIV-1 infection assay, primary isolate 91US_4; type: cell-based; settings: Human immunodeficiency virus 1, primary isolate 91US_4, subtype B, CEMx174 5.25 M7 cells
# CCR5 = CCR5 (Homo sapiens, UniProt P51681); assay: RANTES-induced calcium mobilization assay in CCR5-expressing HEK293 cells; type: cell-based; settings: RANTES 34.6 nM, HEK293 cells expressing Gα15 and CCR5, Fluo-4
# Sequence of CCR5 (P51681 whole entry): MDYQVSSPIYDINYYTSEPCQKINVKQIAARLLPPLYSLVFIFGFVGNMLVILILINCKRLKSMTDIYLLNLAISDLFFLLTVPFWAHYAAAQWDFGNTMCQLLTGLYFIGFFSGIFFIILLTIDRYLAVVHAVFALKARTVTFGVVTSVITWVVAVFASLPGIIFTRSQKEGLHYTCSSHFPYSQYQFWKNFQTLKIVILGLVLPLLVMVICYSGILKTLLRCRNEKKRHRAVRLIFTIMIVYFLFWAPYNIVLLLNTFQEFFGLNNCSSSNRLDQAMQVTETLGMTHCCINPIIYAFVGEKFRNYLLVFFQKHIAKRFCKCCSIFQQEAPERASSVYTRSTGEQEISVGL
# [4] = system: HIV-1 J32228M4 (subtype D, R5); assay: HIV-1 infection assay, primary isolate J32228M4; type: cell-based; settings: Human immunodeficiency virus 1, CEMx174 5.25 M7 cells
# [5] = system: HIV-1 BaL strain (subtype B, R5); assay: HIV-1 infection assay (p24 ELISA), laboratory-adapted R5 virus; type: cell-based; settings: Human immunodeficiency virus 1, BAL, CEMx174 5.25M7
# [6] = Solubility (saturated solution, RP-HPLC); type: physicochemical
# [7] = Metabolic stability in rat plasma; type: in vitro ADME; settings: 37 °C, 4-h incubation, read-out: degradation
# proteinase K = proteinase K (Parengyodontium album, UniProt P06873); assay: Metabolic stability in proteinase K solution; type: in vitro ADME; settings: proteinase K 100 ng/mL, 50 μM peptide, 37 °C, 4-h incubation, read-out: original amount remaining
# Sequence of proteinase K (P06873 106-384): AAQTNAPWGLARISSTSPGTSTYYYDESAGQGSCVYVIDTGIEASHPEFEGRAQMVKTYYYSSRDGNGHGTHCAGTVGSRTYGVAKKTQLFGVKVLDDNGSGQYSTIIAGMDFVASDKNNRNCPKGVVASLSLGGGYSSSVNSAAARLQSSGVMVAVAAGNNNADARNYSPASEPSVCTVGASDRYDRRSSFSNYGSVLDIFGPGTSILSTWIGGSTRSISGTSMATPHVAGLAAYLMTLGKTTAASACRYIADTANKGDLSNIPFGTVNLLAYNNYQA
# CEMx174 5.25M7 cells = assay: Cell Counting Kit-8 (CCK8) cytotoxicity assay; type: cell-based; settings: at 2000 nM
# [8] = CD spectroscopy of isolated peptides; type: physicochemical; settings: 10 μM, [θ]222nm
# [9] = PBS pH 7.4, room temperature, read-out: Solubility in PBS (pH 7.4)
compound,measurement,setting,value
CC(=O)N1CCC(C(=O)N(CCCN2CCC(Cc3ccc(C(N)=O)cc3)CC2)c2ccc(C)c(Cl)c2)CC1 [TAK-220],EC50,[1],> 300 nM
same,EC50,[2],> 300 nM
same,EC50,[3],12.1 ± 2.7 nM
same,IC50,CCR5,0.74 nM
same,EC50,[4],161 ± 6.6 nM
same,EC50,[5],23.8 ± 13.3 nM
enfuvirtide,solubility thermodynamic at 24 h,[6]; [9],1020 ± 30 µg/mL
same,solubility thermodynamic at 24 h,"[6]; water (dd-H2O), H2O, room temperature, read-out: Solubility in H2O",330 ± 10 µg/mL
same,"metabolised at 4 h, 50 μM",[7],68%
same,"remaining at 4 h, 50 μM",proteinase K,35.8%
CC[C@H](C)[C@H](NC(=O)[C@H](CO)NC(=O)[C@H](CCC(=O)O)NC(=O)[C@H](CCC(=O)O)NC(=O)[C@H](CCC(N)=O)NC(=O)[C@H](CCCCN)NC(=O)[C@H](CCCCN)NC(=O)[C@@H](NC(=O)[C@H](CCC(N)=O)NC(=O)[C@H](CCC(=O)O)NC(=O)[C@H](CCC(=O)O)NC(=O)[C@@H](NC(=O)[C@H](CCCCN)NC(=O)[C@H](CCCCN)NC(=O)[C@@H](NC(=O)[C@H](CC(C)C)NC(=O)[C@H](CCC(=O)O)NC(=O)[C@H](CCC(=O)O)NC(=O)[C@H](CO)NC(=O)[C@H](CCCCN)NC(=O)[C@H](CCCCN)NC(=O)[C@@H](NC(=O)[C@H](CC(C)C)NC(=O)[C@H](CCC(=O)O)NC(=O)[C@H](CCC(=O)O)NC(=O)[C@@H](NC(=O)[C@H](CCCCN)NC(=O)[C@H](CCCCN)NC(=O)[C@H](CC(=O)O)NC(=O)[C@H](Cc1c[nH]c2ccccc12)NC(=O)[C@H](CCC(=O)O)NC(=O)[C@H](CCC(=O)O)NC(=O)[C@H](Cc1c[nH]c2ccccc12)NC(=O)[C@@H](NC(=O)[C@H](CCSC)NC(C)=O)[C@@H](C)O)[C@@H](C)CC)[C@@H](C)CC)[C@@H](C)CC)[C@@H](C)CC)[C@@H](C)CC)C(=O)N[C@@H](CCCCN)C(=O)N[C@@H](CCCCN)C(=O)N[C@@H](CCCCNC(=O)CCOCCOCCOCCOCCNC(=O)c1ccc(CC2CCN(CCCN(C(=O)C3CCN(C(C)=O)CC3)c3ccc(C)c(Cl)c3)CC2)cc1)C(N)=O [AP3P4E] (Ac-MTWEEWDKKIEELIKKSEELIKKIEEQIKKQEESIKKK([PEG4-X1])-NH2),cytotoxicity,CEMx174 5.25M7 cells,no cytotoxicity
same,helical content (isolated peptide),[8],83%
same,solubility at 24 h,[6]; [9],> 60000 µg/mL
same,solubility at 24 h,"[6]; dd-H2O, H2O, room temperature, read-out: Solubility in H2O",> 60000 µg/mL
same,"remaining at 4 h, 50 μM",proteinase K,89.9%
CC[C@H](C)[C@H](NC(=O)[C@H](CO)NC(=O)[C@H](CCC(=O)O)NC(=O)[C@H](CCC(=O)O)NC(=O)[C@H](CCC(N)=O)NC(=O)[C@H](CCCCN)NC(=O)[C@H](CCCCN)NC(=O)[C@@H](NC(=O)[C@H](CCC(N)=O)NC(=O)[C@H](CCC(=O)O)NC(=O)[C@H](CCC(=O)O)NC(=O)[C@@H](NC(=O)[C@H](CCCCN)NC(=O)[C@H](CCCCN)NC(=O)[C@@H](NC(=O)[C@H](CC(C)C)NC(=O)[C@H](CCC(=O)O)NC(=O)[C@H](CCC(=O)O)NC(=O)[C@H](CO)NC(=O)[C@H](CCCCN)NC(=O)[C@H](CCCCN)NC(=O)[C@@H](NC(=O)[C@H](CC(C)C)NC(=O)[C@H](CCC(=O)O)NC(=O)[C@H](CCC(=O)O)NC(=O)[C@@H](NC(=O)[C@H](CCCCN)NC(=O)[C@H](CCCCN)NC(=O)[C@H](CC(=O)O)NC(=O)[C@H](Cc1c[nH]c2ccccc12)NC(=O)[C@H](CCC(=O)O)NC(=O)[C@H](CCC(=O)O)NC(=O)[C@H](Cc1c[nH]c2ccccc12)NC(=O)[C@@H](NC(=O)[C@H](CCSC)NC(C)=O)[C@@H](C)O)[C@@H](C)CC)[C@@H](C)CC)[C@@H](C)CC)[C@@H](C)CC)[C@@H](C)CC)C(=O)N[C@@H](CCCCN)C(=O)N[C@@H](CCCCN)C(N)=O [AP3] (Ac-MTWEEWDKKIEELIKKSEELIKKIEEQIKKQEESIKK-NH2),helical content (isolated peptide),[8],86%
same,IC50,CCR5,> 625 nM
